Laboratory results reported in patent EP0107907A2, “Improvements in or relating to immunomodulating agents” (ELI LILLY AND COMPANY, priority 1982, dated 1984).
Marks after values point to notes of the source that are not given here.

Experiments:
Solubility = type: physicochemical
Text: A53868 factor A is soluble in water and dimethyl sulfoxide and is insoluble in most organic solvents.
Soluhility: soluble in water and dimethyl sulfoxide; insoluble in most organic solvents

peritoneal macrophages = experiment: In vivo macrophage activation (peritoneal macrophages from treated mice, cytotoxicity against P815 cells); design: species or system BALB/c mice
Procedure: In another procedure, peritoneal macrophages were harvested after 3, 5, or 10 days from composition- treated mice by peritoneal lavage and purified by adherence on plastic. Approximately 4 x 10^5 macrophages in 16-mm wells were overlaid with 4 x 10^4 P815 cells contained in 2 ml of Roswell Park Memorial Institute.1640 Medium supplemented with 20 percent fetal calf serum. All cultures were maintained in a humidified, 5-percent COZ-in-air incubator at 37°C., and cytotoxicity was assessed at 48 hours on the basis of viable cell counts in a hemocytometer. Triplicate cultures were maintained for each group; the mean cell count and standard error (S.E.) were calculated. […] The ratio of macrophages to target cells was approximately 10:1 at the beginning of each experiment. The percentage of growth inhibition of P815 cells due to composition-mediated macrophage activation was calculated by comparison to that of P815 cells grown in the presence of macrophages from buffer- treated animals.

L. monocytogenes EDG = experiment: Standard agar-diffusion test, antibacterial; type: cell-based
Text: Compound 1 was negative in the Limulus Lysate Test for endotoxin and was devoid of intrinsic in vitro antibacterial activity against L. monocytogenes EDG in a standard agar-diffusion test.

[1] = test system: Listeria monocytogenes EGD; experiment: Protection of mice by pretreatment against lethal Listeria monocytogenes infection; type: in vivo, CD1 mice; conditions: for Average Survival Time: survivors at 14 days given 15 day survival time;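 for Percent Survivors: survivors counted daily for 14 days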
Procedure: In the test CD1 mice weighing 18-20 g were pretreated parenterally with the test compound 5, 3, and 1 days before intravenous infection in the lateral tail vein with 0.1 ml containing 5 x 10^5 viable cells of Listeria monocytogenes EGD. Test compound was solubilized in pyrogen-free water and administered intraperitoneally in 0.25 ml of the solution. Ten mice each were used for each concentration tested. Ten control mice were treated intraperitoneally at 5, 3, and 1-days preinfection with 0.25 ml of pyrogen-free water. The mice were caged, watered, and fed daily. […] All surviving animals at 14 days were given an arbitrary 15 day survival time. The average survival time was calculated for each group. Significant differences between the treated and control groups of mice were determined by the standard "T" test.

C. albicans A26 = experiment: Standard agar-diffusion test, antifungal; type: cell-based
Procedure: In this test CD1 mice weighing 18-20 g were pretreated intraperitoneally or subcutaneously with test compound at 5, 3, and 1 days before intravenous infection with 5 x 10^6 viable cells of Candida albicans A26. Test compound was solubilized in pyrogen-free water and administered in 0.25 ml of solution. Ten mice were used for each concentration tested. Ten infected mice were treated intraperitoneally or subcutaneously at 5, 3, and 1 days preinfection with 0.25 ml of pyrogen-free water as controls. The immunomodulatory effects of the test compound were studied in X-irradiated mice exposed to 400R 24 hours preinfection, or mice treated intraperitoneally with 50 mg/kg cyclophosphamide 5, 3, and 1 days preinfection. The mice were caged, watered, and fed daily. The number of surviving mice was counted daily. Normal mice surviving 18 days post-infection were given an arbitrary 19-day survival time. X-irradiated or cyclophosphamide-treated mice surviving 12 days post-infection were given an arbitrary 13 day survival time. The average survival time was calculated for each group. Significant differences between treated and untreated groups of mice were determined by "T" test. Compound 1 was devoid of intrinsic in vitro antifungal activity against C. albicans A26 in a standard agar-diffusion test.

SMILES: C=C(CP(=O)(O)O)NC(=O)[C@H](CC(C)C)NC(=O)CN [Compound 1, N^2-glycyl-N-(1-methylene-2-phosphonoethyl)leucinamide]
- solubility in most organic solvents (Solubility; most organic solvents): insoluble
- solubility in water and dimethyl sulfoxide (Solubility; water and dimethyl sulfoxide): soluble
- Percent Macrophage Cytotoxicity at Day (peritoneal macrophages; dose 10 mg/kg, Day 0): 0%
- Percent Macrophage Cytotoxicity at Day (peritoneal macrophages; dose 10 mg/kg, Day 3): 8%
- Percent Macrophage Cytotoxicity at Day (peritoneal macrophages; dose 10 mg/kg, Day 5): 20%
- Percent Macrophage Cytotoxicity at Day (peritoneal macrophages; dose 10 mg/kg, Day 10): 0%
- Percent Macrophage Cytotoxicity at Day (peritoneal macrophages; dose 100 mg/kg, Day 0): 0%
- Percent Macrophage Cytotoxicity at Day (peritoneal macrophages; dose 100 mg/kg, Day 3): 43%
- Percent Macrophage Cytotoxicity at Day (peritoneal macrophages; dose 100 mg/kg, Day 5): 25%
- Percent Macrophage Cytotoxicity at Day (peritoneal macrophages; dose 100 mg/kg, Day 10): 0%
- intrinsic in vitro antibacterial activity (L. monocytogenes EDG): devoid
- Percent Survivors ([1]; pretreatment 6.25 mg/kg i.p., day 1 post infection): 100%
- Percent Survivors ([1]; pretreatment 6.25 mg/kg i.p., day 2 post infection): 100%
- Percent Survivors ([1]; pretreatment 6.25 mg/kg i.p., day 3 post infection): 100%
- Percent Survivors ([1]; pretreatment 6.25 mg/kg i.p., day 4 post infection): 60%
- Percent Survivors ([1]; pretreatment 6.25 mg/kg i.p., day 5 post infection): 50%
- Percent Survivors ([1]; pretreatment 6.25 mg/kg i.p., day 6 post infection): 40%
- Percent Survivors ([1]; pretreatment 6.25 mg/kg i.p., day 7 post infection): 30%
- Percent Survivors ([1]; pretreatment 6.25 mg/kg i.p., day 8 post infection): 30%
- Percent Survivors ([1]; pretreatment 6.25 mg/kg i.p., day 9 post infection): 30%
- Percent Survivors ([1]; pretreatment 6.25 mg/kg i.p., day 10 post infection): 30%
- Percent Survivors ([1]; pretreatment 6.25 mg/kg i.p., day 11 post infection): 30%
- Percent Survivors ([1]; pretreatment 6.25 mg/kg i.p., day 12 post infection): 30%
- Percent Survivors ([1]; pretreatment 6.25 mg/kg i.p., day 13 post infection): 30%
- Percent Survivors ([1]; pretreatment 6.25 mg/kg i.p., day 14 post infection): 30%
- Average Survival Time ([1]; pretreatment 6.25 mg/kg i.p.): 7.9* Days
- Percent Survivors ([1]; pretreatment 12.5 mg/kg i.p., day 1 post infection): 100%
- Percent Survivors ([1]; pretreatment 12.5 mg/kg i.p., day 2 post infection): 100%
- Percent Survivors ([1]; pretreatment 12.5 mg/kg i.p., day 3 post infection): 100%
- Percent Survivors ([1]; pretreatment 12.5 mg/kg i.p., day 4 post infection): 80%
- Percent Survivors ([1]; pretreatment 12.5 mg/kg i.p., day 5 post infection): 80%
- Percent Survivors ([1]; pretreatment 12.5 mg/kg i.p., day 6 post infection): 70%
- Percent Survivors ([1]; pretreatment 12.5 mg/kg i.p., day 7 post infection): 70%
- Percent Survivors ([1]; pretreatment 12.5 mg/kg i.p., day 8 post infection): 70%
- Percent Survivors ([1]; pretreatment 12.5 mg/kg i.p., day 9 post infection): 70%
- Percent Survivors ([1]; pretreatment 12.5 mg/kg i.p., day 10 post infection): 70%
- Percent Survivors ([1]; pretreatment 12.5 mg/kg i.p., day 11 post infection): 70%
- Percent Survivors ([1]; pretreatment 12.5 mg/kg i.p., day 12 post infection): 70%
- Percent Survivors ([1]; pretreatment 12.5 mg/kg i.p., day 13 post infection): 70%
- Percent Survivors ([1]; pretreatment 12.5 mg/kg i.p., day 14 post infection): 70%
- Percent Survivors ([1]; pretreatment 12.5 mg/kg i.p., day 15 post infection): 70%
- Average Survival Time ([1]; pretreatment 12.5 mg/kg i.p.): 11.9* Days
- Percent Survivors ([1]; pretreatment 25 mg/kg i.p., day 1 post infection): 100%
- Percent Survivors ([1]; pretreatment 25 mg/kg i.p., day 2 post infection): 100%
- Percent Survivors ([1]; pretreatment 25 mg/kg i.p., day 3 post infection): 90%
- Percent Survivors ([1]; pretreatment 25 mg/kg i.p., day 4 post infection): 70%
- Percent Survivors ([1]; pretreatment 25 mg/kg i.p., day 5 post infection): 40%
- Percent Survivors ([1]; pretreatment 25 mg/kg i.p., day 6 post infection): 40%
- Percent Survivors ([1]; pretreatment 25 mg/kg i.p., day 7 post infection): 40%
- Percent Survivors ([1]; pretreatment 25 mg/kg i.p., day 8 post infection): 40%
- Percent Survivors ([1]; pretreatment 25 mg/kg i.p., day 9 post infection): 40%
- Percent Survivors ([1]; pretreatment 25 mg/kg i.p., day 10 post infection): 40%
- Percent Survivors ([1]; pretreatment 25 mg/kg i.p., day 11 post infection): 40%
- Percent Survivors ([1]; pretreatment 25 mg/kg i.p., day 12 post infection): 40%
- Percent Survivors ([1]; pretreatment 25 mg/kg i.p., day 13 post infection): 40%
- Percent Survivors ([1]; pretreatment 25 mg/kg i.p., day 14 post infection): 40%
- Percent Survivors ([1]; pretreatment 25 mg/kg i.p., day 15 post infection): 40%
- Average Survival Time ([1]; pretreatment 25 mg/kg i.p.): 8.6* Days
- Percent Survivors ([1]; pretreatment 50 mg/kg i.p., day 1 post infection): 100%
- Percent Survivors ([1]; pretreatment 50 mg/kg i.p., day 2 post infection): 100%
- Percent Survivors ([1]; pretreatment 50 mg/kg i.p., day 3 post infection): 80%
- Percent Survivors ([1]; pretreatment 50 mg/kg i.p., day 4 post infection): 70%
- Percent Survivors ([1]; pretreatment 50 mg/kg i.p., day 5 post infection): 40%
- Percent Survivors ([1]; pretreatment 50 mg/kg i.p., day 6 post infection): 30%
- Percent Survivors ([1]; pretreatment 50 mg/kg i.p., day 7 post infection): 30%
- Percent Survivors ([1]; pretreatment 50 mg/kg i.p., day 8 post infection): 30%
- Percent Survivors ([1]; pretreatment 50 mg/kg i.p., day 9 post infection): 30%
- Percent Survivors ([1]; pretreatment 50 mg/kg i.p., day 10 post infection): 30%
- Percent Survivors ([1]; pretreatment 50 mg/kg i.p., day 11 post infection): 30%
- Percent Survivors ([1]; pretreatment 50 mg/kg i.p., day 12 post infection): 30%
- Percent Survivors ([1]; pretreatment 50 mg/kg i.p., day 13 post infection): 30%
- Percent Survivors ([1]; pretreatment 50 mg/kg i.p., day 14 post infection): 30%
- Percent Survivors ([1]; pretreatment 50 mg/kg i.p., day 15 post infection): 30%
- Average Survival Time ([1]; pretreatment 50 mg/kg i.p.): 7.6* Days
- Percent Survivors ([1]; pretreatment 100 mg/kg i.p., day 1 post infection): 100%
- Percent Survivors ([1]; pretreatment 100 mg/kg i.p., day 2 post infection): 100%
- Percent Survivors ([1]; pretreatment 100 mg/kg i.p., day 3 post infection): 80%
- Percent Survivors ([1]; pretreatment 100 mg/kg i.p., day 4 post infection): 50%
- Percent Survivors ([1]; pretreatment 100 mg/kg i.p., day 5 post infection): 50%
- Percent Survivors ([1]; pretreatment 100 mg/kg i.p., day 6 post infection): 50%
- Percent Survivors ([1]; pretreatment 100 mg/kg i.p., day 7 post infection): 50%
- Percent Survivors ([1]; pretreatment 100 mg/kg i.p., day 8 post infection): 50%
- Percent Survivors ([1]; pretreatment 100 mg/kg i.p., day 9 post infection): 50%
- Percent Survivors ([1]; pretreatment 100 mg/kg i.p., day 10 post infection): 50%
- Percent Survivors ([1]; pretreatment 100 mg/kg i.p., day 11 post infection): 50%
- Percent Survivors ([1]; pretreatment 100 mg/kg i.p., day 12 post infection): 50%
- Percent Survivors ([1]; pretreatment 100 mg/kg i.p., day 13 post infection): 50%
- Percent Survivors ([1]; pretreatment 100 mg/kg i.p., day 14 post infection): 50%
- Percent Survivors ([1]; pretreatment 100 mg/kg i.p., day 15 post infection): 50%
- Average Survival Time ([1]; pretreatment 100 mg/kg i.p.): 9.3* Days
- protecting mice against a lethal Listeria monocytogenes EGD infection ([1]; pretreatment 5, 3, and 1 days before intravenous infection, intraperitoneally): highly effective
- intrinsic in vitro antifungal activity (C. albicans A26): devoid
